Converted amounts (≈) assume the structure as drawn.
What follows are compounds tested on Mannheimia haemolytica MH 6357 (M7/2) (assay: MIC, broth-microdilution (CLSI), strain MH 6357). Conditions: Mannheimia haemolytica M7/2, reference strain (cattle infection strain).
Format: cell-based
Protocol: (§1) The Minimum inhibitory concentrations (MIC) of compounds according to the invention for a number of veterinary bacterial pathogens were determined by the broth-microdilution method according to CLSI document VETO 1-A4.
(§2) Microdilution trays containing a doubling dilution series of the test compound were used for the tests. The MIC results were interpreted according to the CLSI documents VET01-S3. The lowest concentration of compound at which no visible growth (i.e. no turbidity) detected by the unaided eye was recorded as the MIC.

Structure (SMILES) | MIC MH 6357 [µM]
CNC(=O)C(NC(=O)c1ccc(C#Cc2ccc(CNC3CCCC3)cc2)cc1)C(=O)NO (centres unmarked) [Compound 9] | 6.3 (≈ 2.83 µg/mL)
CNC(=O)C(NC(=O)c1ccc(C#Cc2ccc(CNC3CCC3)cc2)cc1)C(=O)NO (centres unmarked) [Compound 8] | 3.1 (≈ 1.35 µg/mL)
CNC(=O)C(NC(=O)c1ccc(C#Cc2ccc(CNCc3nccs3)cc2)cc1)C(=O)NO (centres unmarked) [Compound 18] | 0.4 (≈ 0.191 µg/mL)
CNC(=O)C(NC(=O)c1ccc(C#Cc2ccc(CN3CCOCC3)cc2)cc1)C(=O)NO (centres unmarked) [Compound 4] | 1.6 (≈ 0.721 µg/mL)
CNC(=O)C(C(=O)NO)N(C)C(=O)c1ccc(C#Cc2ccc(CNCCOC)cc2)cc1 (centres unmarked) [Compound 21] | 3.1 (≈ 1.4 µg/mL)

The compounds below were run on Mannheimia haemolytica MH 6374 (ATCC 33396) (assay: MIC, broth-microdilution (CLSI), strain MH 6374). Conditions: Mannheimia haemolytica ATCC 33396, reference strain.
Format: cell-based
Protocol: as §1, §2

Structure (SMILES) | MIC MH 6374 [µM]
CNC(=O)C(NC(=O)c1ccc(C#Cc2ccc(CNC3CCCC3)cc2)cc1)C(=O)NO (centres unmarked) [Compound 9] | 25 (≈ 11.2 µg/mL)
CNC(=O)C(NC(=O)c1ccc(C#Cc2ccc(CNC3CCC3)cc2)cc1)C(=O)NO (centres unmarked) [Compound 8] | 6.3 (≈ 2.74 µg/mL)
CNC(=O)C(NC(=O)c1ccc(C#Cc2ccc(CNCc3nccs3)cc2)cc1)C(=O)NO (centres unmarked) [Compound 18] | 0.4 (≈ 0.191 µg/mL)
CNC(=O)C(NC(=O)c1ccc(C#Cc2ccc(CN3CCOCC3)cc2)cc1)C(=O)NO (centres unmarked) [Compound 4] | 3.1 (≈ 1.4 µg/mL)
CNC(=O)C(C(=O)NO)N(C)C(=O)c1ccc(C#Cc2ccc(CNCCOC)cc2)cc1 (centres unmarked) [Compound 21] | 6.3 (≈ 2.85 µg/mL)

Each compound was assayed on Mannheimia haemolytica MH 10720 (154) (assay: MIC, broth-microdilution (CLSI), strain MH 10720). Conditions: Mannheimia haemolytica 154, BRD field isolate.
Format: cell-based
Protocol: as §1, §2

Structure (SMILES) | MIC MH 10720 [µM]
CNC(=O)C(NC(=O)c1ccc(C#Cc2ccc(CNC3CCCC3)cc2)cc1)C(=O)NO (centres unmarked) [Compound 9] | 3.1 (≈ 1.39 µg/mL)
CNC(=O)C(NC(=O)c1ccc(C#Cc2ccc(CNC3CCC3)cc2)cc1)C(=O)NO (centres unmarked) [Compound 8] | 1.6 (≈ 0.695 µg/mL)
CNC(=O)C(NC(=O)c1ccc(C#Cc2ccc(CNCc3nccs3)cc2)cc1)C(=O)NO (centres unmarked) [Compound 18] | 0.2 (≈ 0.0955 µg/mL)
CNC(=O)C(NC(=O)c1ccc(C#Cc2ccc(CN3CCOCC3)cc2)cc1)C(=O)NO (centres unmarked) [Compound 4] | 0.4 (≈ 0.18 µg/mL)
CNC(=O)C(C(=O)NO)N(C)C(=O)c1ccc(C#Cc2ccc(CNCCOC)cc2)cc1 (centres unmarked) [Compound 21] | 1.6 (≈ 0.724 µg/mL)

These compounds were tested on Mannheimia haemolytica MH 12587 (1071), macrolide-resistance: erm+, E+ (assay: MIC, broth-microdilution (CLSI), strain MH 12587). Conditions: Mannheimia haemolytica 1071, BRD field isolate.
Format: cell-based
Protocol: as §1, §2

Structure (SMILES) | MIC MH 12587 [µM]
CNC(=O)C(NC(=O)c1ccc(C#Cc2ccc(CNC3CCCC3)cc2)cc1)C(=O)NO (centres unmarked) [Compound 9] | 25 (≈ 11.2 µg/mL)
CNC(=O)C(NC(=O)c1ccc(C#Cc2ccc(CNC3CCC3)cc2)cc1)C(=O)NO (centres unmarked) [Compound 8] | 12.5 (≈ 5.43 µg/mL)
CNC(=O)C(NC(=O)c1ccc(C#Cc2ccc(CNCc3nccs3)cc2)cc1)C(=O)NO (centres unmarked) [Compound 18] | 0.8 (≈ 0.382 µg/mL)
CNC(=O)C(NC(=O)c1ccc(C#Cc2ccc(CN3CCOCC3)cc2)cc1)C(=O)NO (centres unmarked) [Compound 4] | 6.3 (≈ 2.84 µg/mL)
CNC(=O)C(C(=O)NO)N(C)C(=O)c1ccc(C#Cc2ccc(CNCCOC)cc2)cc1 (centres unmarked) [Compound 21] | 12.5 (≈ 5.66 µg/mL)

What follows are compounds tested on Mannheimia haemolytica MH 13065 (XB0446-6003.9) (assay: MIC, broth-microdilution (CLSI), strain MH 13065). Conditions: Mannheimia haemolytica XB0446-6003.9, BRD field isolate.
Format: cell-based
Protocol: as §1, §2

Structure (SMILES) | MIC MH 13065 [µM]
CNC(=O)C(NC(=O)c1ccc(C#Cc2ccc(CNC3CCCC3)cc2)cc1)C(=O)NO (centres unmarked) [Compound 9] | 12.5 (≈ 5.61 µg/mL)
CNC(=O)C(NC(=O)c1ccc(C#Cc2ccc(CNC3CCC3)cc2)cc1)C(=O)NO (centres unmarked) [Compound 8] | 6.3 (≈ 2.74 µg/mL)
CNC(=O)C(NC(=O)c1ccc(C#Cc2ccc(CNCc3nccs3)cc2)cc1)C(=O)NO (centres unmarked) [Compound 18] | 0.4 (≈ 0.191 µg/mL)
CNC(=O)C(NC(=O)c1ccc(C#Cc2ccc(CN3CCOCC3)cc2)cc1)C(=O)NO (centres unmarked) [Compound 4] | 1.6 (≈ 0.721 µg/mL)
CNC(=O)C(C(=O)NO)N(C)C(=O)c1ccc(C#Cc2ccc(CNCCOC)cc2)cc1 (centres unmarked) [Compound 21] | 3.1 (≈ 1.4 µg/mL)

What follows are compounds tested on Mannheimia haemolytica MH 13093 (XB0472-6014.1) (assay: MIC, broth-microdilution (CLSI), strain MH 13093). Conditions: Mannheimia haemolytica XB0472-6014.1, BRD field isolate.
Format: cell-based
Protocol: as §1, §2

Structure (SMILES) | MIC MH 13093 [µM]
CNC(=O)C(NC(=O)c1ccc(C#Cc2ccc(CNC3CCCC3)cc2)cc1)C(=O)NO (centres unmarked) [Compound 9] | 12.5 (≈ 5.61 µg/mL)
CNC(=O)C(NC(=O)c1ccc(C#Cc2ccc(CNC3CCC3)cc2)cc1)C(=O)NO (centres unmarked) [Compound 8] | 6.3 (≈ 2.74 µg/mL)
CNC(=O)C(NC(=O)c1ccc(C#Cc2ccc(CNCc3nccs3)cc2)cc1)C(=O)NO (centres unmarked) [Compound 18] | 0.4 (≈ 0.191 µg/mL)
CNC(=O)C(NC(=O)c1ccc(C#Cc2ccc(CN3CCOCC3)cc2)cc1)C(=O)NO (centres unmarked) [Compound 4] | 1.6 (≈ 0.721 µg/mL)
CNC(=O)C(C(=O)NO)N(C)C(=O)c1ccc(C#Cc2ccc(CNCCOC)cc2)cc1 (centres unmarked) [Compound 21] | 12.5 (≈ 5.66 µg/mL)

The compounds below were run on Pasteurella multocida PM 6267 (P 2225 (L386)) (assay: MIC, broth-microdilution (CLSI), strain PM 6267). Conditions: Pasteurella multocida P 2225 (L386), reference strain (mouse infection strain).
Format: cell-based
Protocol: as §1, §2

Structure (SMILES) | MIC PM 6267 [µM]
CNC(=O)C(NC(=O)c1ccc(C#Cc2ccc(CNC3CCCC3)cc2)cc1)C(=O)NO (centres unmarked) [Compound 9] | 0.4 (≈ 0.179 µg/mL)
CNC(=O)C(NC(=O)c1ccc(C#Cc2ccc(CNC3CCC3)cc2)cc1)C(=O)NO (centres unmarked) [Compound 8] | ≤0.1
CNC(=O)C(NC(=O)c1ccc(C#Cc2ccc(CNCc3nccs3)cc2)cc1)C(=O)NO (centres unmarked) [Compound 18] | ≤0.1
CNC(=O)C(NC(=O)c1ccc(C#Cc2ccc(CN3CCOCC3)cc2)cc1)C(=O)NO (centres unmarked) [Compound 4] | ≤0.1
CNC(=O)C(C(=O)NO)N(C)C(=O)c1ccc(C#Cc2ccc(CNCCOC)cc2)cc1 (centres unmarked) [Compound 21] | 1.6 (≈ 0.724 µg/mL)

Each compound was assayed on Pasteurella multocida PM 6391 (ATCC 43137) (assay: MIC, broth-microdilution (CLSI), strain PM 6391). Conditions: Pasteurella multocida ATCC 43137, reference strain.
Format: cell-based
Protocol: as §1, §2

Structure (SMILES) | MIC PM 6391 [µM]
CNC(=O)C(NC(=O)c1ccc(C#Cc2ccc(CNC3CCCC3)cc2)cc1)C(=O)NO (centres unmarked) [Compound 9] | 0.4 (≈ 0.179 µg/mL)
CNC(=O)C(NC(=O)c1ccc(C#Cc2ccc(CNC3CCC3)cc2)cc1)C(=O)NO (centres unmarked) [Compound 8] | 0.4 (≈ 0.174 µg/mL)
CNC(=O)C(NC(=O)c1ccc(C#Cc2ccc(CNCc3nccs3)cc2)cc1)C(=O)NO (centres unmarked) [Compound 18] | ≤0.1
CNC(=O)C(NC(=O)c1ccc(C#Cc2ccc(CN3CCOCC3)cc2)cc1)C(=O)NO (centres unmarked) [Compound 4] | ≤0.1
CNC(=O)C(C(=O)NO)N(C)C(=O)c1ccc(C#Cc2ccc(CNCCOC)cc2)cc1 (centres unmarked) [Compound 21] | 3.1 (≈ 1.4 µg/mL)

Each compound was assayed on Pasteurella multocida PM 10775 (080130003051) (assay: MIC, broth-microdilution (CLSI), strain PM 10775). Conditions: Pasteurella multocida 080130003051, BRD field isolate.
Format: cell-based
Protocol: as §1, §2

Structure (SMILES) | MIC PM 10775 [µM]
CNC(=O)C(NC(=O)c1ccc(C#Cc2ccc(CNC3CCCC3)cc2)cc1)C(=O)NO (centres unmarked) [Compound 9] | 0.2 (≈ 0.0897 µg/mL)
CNC(=O)C(NC(=O)c1ccc(C#Cc2ccc(CNC3CCC3)cc2)cc1)C(=O)NO (centres unmarked) [Compound 8] | ≤0.1
CNC(=O)C(NC(=O)c1ccc(C#Cc2ccc(CNCc3nccs3)cc2)cc1)C(=O)NO (centres unmarked) [Compound 18] | ≤0.1
CNC(=O)C(NC(=O)c1ccc(C#Cc2ccc(CN3CCOCC3)cc2)cc1)C(=O)NO (centres unmarked) [Compound 4] | ≤0.1
CNC(=O)C(C(=O)NO)N(C)C(=O)c1ccc(C#Cc2ccc(CNCCOC)cc2)cc1 (centres unmarked) [Compound 21] | 0.4 (≈ 0.181 µg/mL)

The compounds below were run on Pasteurella multocida PM 12080 (IV102277-0093) (assay: MIC, broth-microdilution (CLSI), strain PM 12080). Conditions: Pasteurella multocida IV102277-0093, BRD field isolate.
Format: cell-based
Protocol: as §1, §2

Structure (SMILES) | MIC PM 12080 [µM]
CNC(=O)C(NC(=O)c1ccc(C#Cc2ccc(CNC3CCCC3)cc2)cc1)C(=O)NO (centres unmarked) [Compound 9] | 0.4 (≈ 0.179 µg/mL)
CNC(=O)C(NC(=O)c1ccc(C#Cc2ccc(CNC3CCC3)cc2)cc1)C(=O)NO (centres unmarked) [Compound 8] | 0.4 (≈ 0.174 µg/mL)
CNC(=O)C(NC(=O)c1ccc(C#Cc2ccc(CNCc3nccs3)cc2)cc1)C(=O)NO (centres unmarked) [Compound 18] | ≤0.1
CNC(=O)C(NC(=O)c1ccc(C#Cc2ccc(CN3CCOCC3)cc2)cc1)C(=O)NO (centres unmarked) [Compound 4] | ≤0.1
CNC(=O)C(C(=O)NO)N(C)C(=O)c1ccc(C#Cc2ccc(CNCCOC)cc2)cc1 (centres unmarked) [Compound 21] | 1.6 (≈ 0.724 µg/mL)

Reference: patent US12157717B2, “Compounds for the treatment of bovine or swine respiratory disease” (Intervet Inc., priority 2018, dated 2024)
